Laboratory results: patent publication US20230330254A1 (Regeneron Pharmaceuticals, Inc., priority 2022, published 2023)
Where a SMILES comes first, the peptide text is derived from it. [ ]: non-standard residue; d: D form. The star is where a group is joined. Bip(2'-Et,4'-O(CH2)4N3) = CCc1cc(OCCCCN=[N+]=[N-])ccc1-c1ccc(C[C@H](N)C(=O)O)cc1; Bip(2'-Et,4'-O(CH2)4NH2) = CCc1cc(OCCCCN)ccc1-c1ccc(C[C@H](N)C(=O)O)cc1; Malonyl(2,2-Me2,histaminyl) = CC(C)(C(=O)NCCc1cnc[nH]1)C(=O)*; Nva(5-(3,5-Me2Ph)) = Cc1cc(C)cc(CCC[C@H](N)C(=O)O)c1; Ala(1H-tetrazol-5-yl) = N[C@@H](Cc1nnn[nH]1)C(=O)O; αMePhe(2-F) = C[C@](N)(Cc1ccccc1F)C(=O)O; X2 = CC(C)(C(N)=O)C(=O)*

Experiments:
[1] = Plasma stability of payloads and linker-payloads, human plasma; type: in vitro ADME; details: plasma, pH 7.4, tested time A (1 day per footnote), 2 μM, 37° C., read-out: Human plasma stability assay T½ (converted)
Summary of the method: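 Pooled plasma, pH adjusted to 7.4±0.1 where needed, spiked to 2 μM compound (duplicate) and incubated at 37 °C. At each time point, protein was precipitated with ACN/MeOH stop solution containing internal standards; remaining compound quantified in supernatant by LC-MS/MS.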

[2] = test system: HEK293/CRE-Luc cells; test: Luciferase reporter assay, HEK293/CRE-Luc cells without hGLP1R (Example 11); type: cell-based, human; details: Experiment A
Summary of the method: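 Counter-screen in HEK293 cells carrying CRE-driven firefly luciferase without hGLP1R; 3-fold serial dilutions of payloads or linker-payloads at 0.2% final DMSO, 4–6 h.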

[3] = molecular target: T1, human GLP1R (Homo sapiens, UniProt P43220); test: CRE-luciferase reporter assay, HEK293/Myc-hGLP1R/Cre-Luc (Example 9); type: cell-based; design: engineered to express full-length human GLP1R, cynomolgus GLP1R; expressed in transfected cells; host or cells: HEK293/CRE-Luc; details: Table 9; 5.5 h; read-out: HEK293/Myc-hGLP1R/Cre-Luc EC50
T1 sequence (P43220 24-463): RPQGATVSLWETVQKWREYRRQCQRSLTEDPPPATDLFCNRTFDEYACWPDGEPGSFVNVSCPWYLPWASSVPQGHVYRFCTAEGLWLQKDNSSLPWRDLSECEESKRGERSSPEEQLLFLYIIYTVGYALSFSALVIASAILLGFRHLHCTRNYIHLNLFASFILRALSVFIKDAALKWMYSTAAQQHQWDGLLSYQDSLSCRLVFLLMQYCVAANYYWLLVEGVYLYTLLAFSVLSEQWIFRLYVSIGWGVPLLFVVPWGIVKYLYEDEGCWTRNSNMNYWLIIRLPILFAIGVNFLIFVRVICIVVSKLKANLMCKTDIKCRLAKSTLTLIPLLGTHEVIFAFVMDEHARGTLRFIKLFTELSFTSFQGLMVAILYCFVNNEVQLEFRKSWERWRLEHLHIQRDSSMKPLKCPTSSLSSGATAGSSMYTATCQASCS
Procedure: To test the activity of GLP1R agonist payloads and GLP1R agonist linker-payloads (LPs) in vitro, a cell-based cAMP responsive luciferase reporter assay was developed.
Cells were incubated overnight at 37° C. in 5% CO2. […] Plates were incubated for 5.5 h at 37° C. in 5% CO2. For end-point measurement, 100 μL/well of One-Glo reagent (Promega, #E6051) was added and plates were kept at room temperature for 5-10 minutes. Luciferase activity was measured on Envision Multilabel Plate Reader (Perkin Elmer) in Luminescent mode. The relative light units (RLU) values were obtained and the results were analyzed using nonlinear regression with GraphPad Prism software (GraphPad).

[4] = molecular target: T1, human GLP1R; test: Luciferase reporter assay, HEK293/CRE-Luc/hGLP1R cells (Example 11); type: cell-based; design: engineered to express full-length human GLP1R, cynomolgus GLP1R; expressed in transfected cells; host or cells: HEK293/CRE-Luc
[5] = molecular target: T1, human GLP1R; test: Human GLP1R cAMP accumulation assay; type: cell-based; design: HEK293 cells over-expressing full length human GLP-1R were utilized; expressed in transfected cells; host or cells: HEK293 (HEK293/hGLP1R); details: HEK293/hGLP1R cells; Table 4; read-out: cAMP EC50
Summary of the method: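 cAMP accumulation measured after 30 min at 23° C, with 500 μM IBMX in HEPES-buffered HBSS plus 0.1% BSA, in HEK293 cells expressing full-length hGLP-1R. Levels read by D2-cAMP/antibody immunoassay via standard curve, scaled between low and high controls. EC50 fitted four-parameter over a 10-point curve.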

[6] = Plasma protein binding (equilibrium dialysis); type: in vitro ADME, human; details: Human Plasma; 4 hours dialysis
Procedure: The pH value of the resulting plasma was checked
(<http://www.htdialysis.com/>).
DMSO working solutions were prepared at 400 μM. […] These samples were transferred into new 96-well plates.

[7] = test system: HEK293/CRE-Luc cells; test: Luciferase reporter assay, HEK293/CRE-Luc cells without GLP1R (Example 17); type: cell-based, human; details: HEK293/CRE-Luc cells without hGLP1R, payloads and linker-payloads
Summary of the method: (§1)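 HEK293 cells carrying a CRE-driven firefly luciferase reporter were exposed to 3-fold serial dilutions of payloads or linker-payloads (12 points, 0.2% DMSO final) for 4–6 h, then luminescence was read. EC50 came from a four-parameter logistic fit; S/N is top RLU over untreated wells, and relative potency and S/N are referenced to M2361.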

[8] = Plasma stability of payloads (t½)
[9] = molecular target: T1, human GLP1R; test: Luciferase reporter assay, HEK293/CRE-Luc/hGLP1R (Example 17); type: cell-based; design: engineered to express full-length human GLP1R, cynomolgus GLP1R; expressed in transfected cells; host or cells: HEK293/CRE-Luc; details: HEK293/CRE-Luc/hGLP1R
Summary of the method: as §1

[10] = relative to M2361 of the same experiment

Question: With `CCc1cc(OCCCCN=[N+]=[N-])ccc1-c1ccc(C[C@H](NC(=O)[C@H](CC(=O)O)NC(=O)[C@H](CO)NC(=O)[C@@H](NC(=O)[C@](C)(Cc2ccccc2F)NC(=O)[C@@H](NC(=O)CNC(=O)[C@H](Cc2nn[nH]n2)NC(=O)C(C)(C)C(=O)NCCc2cnc[nH]2)[C@@H](C)O)[C@@H](C)O)C(=O)N[C@@H](CCCc2cc(C)cc(C)c2)C(N)=O)cc1` [P8] ({Malonyl(2,2-Me2,histaminyl)}-[Ala(1H-tetrazol-5-yl)]GT[αMePhe(2-F)]TSD[Bip(2'-Et,4'-O(CH2)4N3)][Nva(5-(3,5-Me2Ph))]-NH2) as the compound, how does the half-life at 2 µM [1] read?
Answer: The half-life at 2 µM was greater than 57.8 h.

Question: And the EC50 ([2]; Table 11, no hGLP1R expression)?
Answer: The EC50 was greater than 200 nM.

Question: What about the “HEK293/CRE-LUC S/N” value ([2]; Table 11, no hGLP1R expression) of the same compound?
Answer: The value was 1.5.

Question: And the EC50 ([2]; Table 12)?
Answer: The EC50 was greater than 20 nM.

Question: And the “HEK293/CRE-Luc S/N” value ([2]; Table 12)?
Answer: The value was 1.3.

Question: What about the EC50 [3] of the same compound?
Answer: The EC50 was 0.0076 nM.

Question: And the EC50 ([4]; Table 11, Experiment A)?
Answer: The EC50 was 0.00531 nM.

Question: And the “HEK293/CRE-LUC/hGLP1R Relative Potency (% P8 EC50)” value ([4]; Table 11, Experiment A)?
Answer: Its value is 100.0%.

Question: What about the “HEK293/CRE-LUC/hGLP1R S/N” value ([4]; Table 11, Experiment A) of the same compound?
Answer: The value was 65.8.

Question: What about the EC50 ([4]; Table 11, Experiment B) of the same compound?
Answer: The EC50 was 0.02 nM.

Question: What about the “HEK293/CRE-LUC/hGLP1R Relative Potency (% P8 EC50)” value ([4]; Table 11, Experiment B) of the same compound?
Answer: Its value is 100.0%.

Question: What about the “HEK293/CRE-LUC/hGLP1R S/N” value ([4]; Table 11, Experiment B) of the same compound?
Answer: The value was 327.9.

Question: And the EC50 ([4]; Table 11, Experiment D)?
Answer: The EC50 was 0.0273 nM.

Question: And the “HEK293/CRE-LUC/hGLP1R Relative Potency (% P8 EC50)” value ([4]; Table 11, Experiment D)?
Answer: Its value is 100.0%.

Question: What about the “HEK293/CRE-LUC/hGLP1R Relative Signal:Noise (% P8)” value ([4]; Table 11, Experiment D) of the same compound?
Answer: The value was 100.0%.

Question: And the “HEK293/CRE-LUC/hGLP1R S/N” value ([4]; Table 11, Experiment D)?
Answer: Its value is 235.9.

Question: What about the EC50 ([4]; Table 12, Experiment A) of the same compound?
Answer: Its EC50 is 0.0162 nM.

Question: And the “HEK293/CRE-Luc/hGLP1R Relative Potency (% P8 EC50)” value ([4]; Table 12, Experiment A)?
Answer: The value was 100.0%.

Question: What about the “HEK293/CRE-Luc/hGLP1R Relative Signal:Noise (% P8)” value ([4]; Table 12, Experiment A) of the same compound?
Answer: Its value is 100.0%.

Question: And the “HEK293/CRE-Luc/hGLP1R S/N” value ([4]; Table 12, Experiment A)?
Answer: Its value is 64.3.

Question: And the EC50 ([4]; Table 12, Experiment D)?
Answer: Its EC50 is 0.0273 nM.

Question: And the “HEK293/CRE-Luc/hGLP1R Relative Potency (% P8 EC50)” value ([4]; Table 12, Experiment D)?
Answer: The value was 100.0%.

Question: And the “HEK293/CRE-Luc/hGLP1R Relative Signal:Noise (% P8)” value ([4]; Table 12, Experiment D)?
Answer: The value was 100.0%.

Question: And the “HEK293/CRE-Luc/hGLP1R S/N” value ([4]; Table 12, Experiment D)?
Answer: Its value is 235.9.

Question: And the EC50 [5]?
Answer: Its EC50 is 0.497 nM.

Question: Which recovery at 4 h, 2 µM [6] does the source give for `CC(=O)CC(c1ccccc1)c1c(O)c2ccccc2oc1=O` (stereo not shown) [Warfarin] here?
Answer: Its recovery at 4 h, 2 µM is 98.3%.

Question: For `CCc1cc(OCCCCN)ccc1-c1ccc(C[C@H](NC(=O)[C@H](CC(=O)O)NC(=O)[C@H](CO)NC(=O)[C@@H](NC(=O)[C@](C)(Cc2ccccc2F)NC(=O)[C@@H](NC(=O)CNC(=O)[C@H](Cc2nn[nH]n2)NC(=O)C(C)(C)C(N)=O)[C@@H](C)O)[C@@H](C)O)C(=O)N[C@@H](CCCc2cc(C)cc(C)c2)C(N)=O)cc1` [P4] (X2-[Ala(1H-tetrazol-5-yl)]GT[αMePhe(2-F)]TSD[Bip(2'-Et,4'-O(CH2)4NH2)][Nva(5-(3,5-Me2Ph))]-NH2), which half-life at 2 µM [1] is on record?
Answer: The half-life at 2 µM was greater than 57.8 h.

Question: And the EC50 ([2]; Table 11, no hGLP1R expression)?
Answer: Its EC50 is greater than 200 nM.

Question: What about the “HEK293/CRE-LUC S/N” value ([2]; Table 11, no hGLP1R expression) of the same compound?
Answer: The value was 1.6.

Question: And the S/N [7]?
Answer: The S/N was 1.6.

Question: What about the EC50 ([7]; read-out: EC50) of the same compound?
Answer: The EC50 was greater than 200 nM.

Question: And the “Plasma stability t½” value [8]?
Answer: The value was greater than 57.8 h.

Question: And the EC50 ([4]; Table 11, Experiment A)?
Answer: The EC50 was 0.0837 nM.

Question: What about the “HEK293/CRE-LUC/hGLP1R Relative Potency (% P8 EC50)” value ([4]; Table 11, Experiment A) of the same compound?
Answer: Its value is 6.3%.

Question: And the “HEK293/CRE-LUC/hGLP1R S/N” value ([4]; Table 11, Experiment A)?
Answer: Its value is 66.9.

Question: And the S/N ([9]; highest RLU / RLU of untreated wells)?
Answer: The S/N was 66.9.

Question: What about the EC50 ([9]; payloads and linker-payloads, experiments A-E, M2361 repeated in each, read-out: EC50) of the same compound?
Answer: Its EC50 is 0.0837 nM.

Question: What about the “Relative Potency (% M2361 EC50)” value [9, 10] of the same compound?
Answer: Its value is 6.3%.

Question: What about the “Relative Signal:Noise (% M2361)” value [9, 10] of the same compound?
Answer: Its value is 101.8%.

Question: And the EC50 [5]?
Answer: The EC50 was 0.156 nM.
